Data set [1] concerns myofibroblast formation. As to conditions: animal studies of capsular contracture with breast implants; cited from earlier work.
For data set [2] the following is noted: given preoperatively.
For data set [3], the system named is fibrinolysis. Nature of the data set: tranexamic acid concentrations effective against fibrinolysis. As to conditions: relative to doses used in the non-GLP acute porcine study.

Each structure is given as a SMILES string.

In the case of `O=S(=O)([O-])CCS.[Na+]` [MESNA, sodium 2-mercaptoethane sulfonate], the myofibroblast formation entry in data set [1] is on record as “diminish myofibroblast formation”.
With `NC[C@H]1CC[C@H](C(=O)O)CC1` [tranexamic acid], in data set [2], the “time to reach plasma concentrations” value fell in the range of 5 to 15 min. Further, the “dose effective in reversing fibrinolysis” value in data set [3] is “one tenth of the doses used in the non-GLP acute porcine study”.

(Values after patent US11191878B2, “Kits for local delivery of water soluble agents and methods of use” (priority 2017, dated 2021).)
